Experimental data taken from PMC3123436 (Bioorganic & medicinal chemistry, 2011).
In brackets after ≈: the same amount, converted by molar mass.

What was measured:
Test in all cases: microbe, parasite or virus in culture
Conditions in all cases: Mycobacterium tuberculosis, read-out: MIC95 (95% inhibition)
[1] = test system: M. tuberculosis isolate VA1215
[2] = test system: M. tuberculosis isolate UCSD14768J
[3] = test system: M. tuberculosis isolate VA1345

| Compound | MIC [1] | MIC [2] | MIC [3] |
| --- | --- | --- | --- |
| CCC1CCCCN1CCCNC(=O)c1ccc2c(c1)N(Cc1cccc(Cl)c1)C(=O)c1ccccc1[S+]2[O-] (stereo not shown) [Compound 12] | 110 µM (≈ 62.1 µg/mL) | – | – |
| O=C(NCCCN1CCCC1)c1ccc2c(c1)N(Cc1cccc(Cl)c1)C(=O)c1ccccc1[S+]2[O-] (stereo not shown) [Compound 17] | 220 µM (≈ 115 µg/mL) | 220 µM (≈ 115 µg/mL) | 220 µM (≈ 115 µg/mL) |
| CN(CCCNC(=O)c1ccc2c(c1)N(Cc1cccc(Cl)c1)C(=O)c1ccccc1[S+]2[O-])C1CCCCC1 (stereo not shown) [Compound 2, N-[3-(cyclohexylmethylamino)propyl]-10-[(3-chlorophenyl)methyl]-10,11-dihydro-11-oxo-dibenzo-[b,f][1,4]-thiazepine-8-carboxamide-5-oxide] | 110 µM (≈ 62.1 µg/mL) | 110 µM (≈ 62.1 µg/mL) | 110 µM (≈ 62.1 µg/mL) |
| O=C(NCCN1CCCCCC1)c1ccc2c(c1)N(Cc1cccc(Cl)c1)C(=O)c1ccccc1[S+]2[O-] (stereo not shown) [Compound 20] | 110 µM (≈ 59 µg/mL) | 110 µM (≈ 59 µg/mL) | 110 µM (≈ 59 µg/mL) |
| O=C(NCCCN1CCCC1)c1ccc2c(c1)N(Cc1cccc(Cl)c1)C(=O)c1ccccc1S2 [Compound 18] | 110 µM (≈ 55.7 µg/mL) | 110 µM (≈ 55.7 µg/mL) | 110 µM (≈ 55.7 µg/mL) |
